Test results reported in PMC5218480 (PLoS ONE, 2017).

Test system: MV-4-11 cells
Experiment: Gene expression microarray analysis (Affymetrix PrimeView) and GSEA
Assay type: cell-based, human
Parameters: RFU PODN (11730768_x_at) / Fold change /veh PODN (11730768_x_at) / RFU LINC00158 (11744669_a_at) / Fold change /veh LINC00158 (11744669_a_at) / RFU DUSP10 (11751237_a_at) / Fold change /veh DUSP10 (11751237_a_at) / RFU ID3 (11757404_x_at) / Fold change /veh ID3 (11757404_x_at) / RFU PLEKHG5 (11737974_s_at) / Fold change /veh PLEKHG5 (11737974_s_at) / RFU LRRC4B (11730491_at) / Fold change /veh LRRC4B (11730491_at) / RFU GIMAP4 (11747438_a_at) / Fold change /veh GIMAP4 (11747438_a_at) / RFU KRT8 (11758183_x_at) / Fold change /veh KRT8 (11758183_x_at) / RFU CNN1 (11734310_a_at) / Fold change /veh CNN1 (11734310_a_at) / RFU VPS37D (11726825_at) / Fold change /veh VPS37D (11726825_at) / RFU C10orf10 (11716522_x_at) / Fold change /veh C10orf10 (11716522_x_at) / RFU KIR2DL2 /// KIR2DL4 /// KIR2DL5A /// KIR2DL5B /// KIR2DS1 /// KIR2DS2 /// KIR2DS3 /// KIR2DS4 /// KIR3DL3 /// KIR3DL3 /// KIR3DS1 (11738374_at) / Fold change /veh KIR2DL2 /// KIR2DL4 /// KIR2DL5A /// KIR2DL5B /// KIR2DS1 /// KIR2DS2 /// KIR2DS3 /// KIR2DS4 /// KIR3DL3 /// KIR3DL3 /// KIR3DS1 (11738374_at) / RFU C1QL1 (11718748_at) / Fold change /veh C1QL1 (11718748_at) / RFU TMPRSS4 (11747572_a_at) / Fold change /veh TMPRSS4 (11747572_a_at) / RFU HAMP (11756126_x_at) / Fold change /veh HAMP (11756126_x_at) / RFU RNFT2 (11725882_a_at) / Fold change /veh RNFT2 (11725882_a_at) / RFU NR4A2 (11747474_a_at) / Fold change /veh NR4A2 (11747474_a_at) / RFU ABCC12 (11746883_a_at) / Fold change /veh ABCC12 (11746883_a_at) / RFU TMEM136 (11760407_x_at) / Fold change /veh TMEM136 (11760407_x_at) / RFU CLDN22 /// WWC2 (11732394_at) / Fold change /veh CLDN22 /// WWC2 (11732394_at) / RFU HLA-DPB1 (11760878_x_at) / Fold change /veh HLA-DPB1 (11760878_x_at) / RFU SPINT1 (11716480_a_at) / Fold change /veh SPINT1 (11716480_a_at) / RFU GAP43 (11754022_s_at) / Fold change /veh GAP43 (11754022_s_at) / RFU A4GNT (11735810_at) / Fold change /veh A4GNT (11735810_at) / RFU PRB3 (11715151_x_at) / Fold change /veh PRB3 (11715151_x_at) / RFU TUBB4B (11761932_at) / Fold change /veh TUBB4B (11761932_at) / RFU CAPN14 (11732068_a_at) / Fold change /veh CAPN14 (11732068_a_at) / RFU TMCC2 (11721928_a_at) / Fold change /veh TMCC2 (11721928_a_at) / RFU IRGQ (11745062_a_at) / Fold change /veh IRGQ (11745062_a_at) / RFU FAM174B (11720279_a_at) / Fold change /veh FAM174B (11720279_a_at) / RFU TMPRSS4 (11748680_a_at) / Fold change /veh TMPRSS4 (11748680_a_at) / RFU FAM212B (11763350_a_at) / Fold change /veh FAM212B (11763350_a_at) / RFU PLEKHG5 (11743358_a_at) / Fold change /veh PLEKHG5 (11743358_a_at) / RFU ZSCAN30 (11745921_a_at) / Fold change /veh ZSCAN30 (11745921_a_at) / RFU CMKLR1 (11741424_a_at) / Fold change /veh CMKLR1 (11741424_a_at) / RFU LOC101060620 /// MAPK8IP1 (11723275_at) / Fold change /veh LOC101060620 /// MAPK8IP1 (11723275_at) / RFU SPTSSB (11747773_x_at) / Fold change /veh SPTSSB (11747773_x_at) / RFU PRSS12 (11739890_at) / Fold change /veh PRSS12 (11739890_at) / RFU BIN1 (11741810_x_at) / Fold change /veh BIN1 (11741810_x_at) / RFU WNT11 (11732464_a_at) / Fold change /veh WNT11 (11732464_a_at) / RFU C10orf10 (11716521_a_at) / Fold change /veh C10orf10 (11716521_a_at) / RFU C5orf56 (11738089_at) / Fold change /veh C5orf56 (11738089_at) / RFU CYB561 (11721691_x_at) / Fold change /veh CYB561 (11721691_x_at) / RFU ANKRD19P (11752326_a_at) / Fold change /veh ANKRD19P (11752326_a_at) / RFU OR2T12 /// OR2T33 /// OR2T8 (11738714_s_at) / Fold change /veh OR2T12 /// OR2T33 /// OR2T8 (11738714_s_at) / RFU VCAN (11748164_a_at) / Fold change /veh VCAN (11748164_a_at) / RFU JSRP1 (11732532_at) / Fold change /veh JSRP1 (11732532_at) / RFU KRTAP10-11 (11738290_x_at) / Fold change /veh KRTAP10-11 (11738290_x_at) / RFU MYO3A (11730013_a_at) / Fold change /veh MYO3A (11730013_a_at) / RFU EBF3 (11725865_a_at) / Fold change /veh EBF3 (11725865_a_at) / RFU CAMK2N1 (11719241_x_at) / Fold change /veh CAMK2N1 (11719241_x_at) / RFU C5orf56 (11738088_a_at) / Fold change /veh C5orf56 (11738088_a_at) / RFU OLFML3 (11715873_a_at) / Fold change /veh OLFML3 (11715873_a_at) / RFU LOC100653217 /// NTM (11731650_a_at) / Fold change /veh LOC100653217 /// NTM (11731650_a_at) / RFU MAPK11 (11762145_a_at) / Fold change /veh MAPK11 (11762145_a_at) / RFU FIZ1 (11724087_x_at) / Fold change /veh FIZ1 (11724087_x_at) / RFU OASL (11726364_x_at) / Fold change /veh OASL (11726364_x_at) / RFU SOX15 (11748057_x_at) / Fold change /veh SOX15 (11748057_x_at) / RFU CD79A (11719716_a_at) / Fold change /veh CD79A (11719716_a_at) / RFU HIST1H1D (11736915_at) / Fold change /veh HIST1H1D (11736915_at) / RFU CASKIN2 (11723855_a_at) / Fold change /veh CASKIN2 (11723855_a_at) / RFU LOC730098 (11760151_x_at) / Fold change /veh LOC730098 (11760151_x_at) / RFU OR4N2 (11742367_at) / Fold change /veh OR4N2 (11742367_at) / RFU PRRT2 (11749266_a_at) / Fold change /veh PRRT2 (11749266_a_at) / RFU SNX32 (11753110_a_at) / Fold change /veh SNX32 (11753110_a_at) / RFU CDHR5 (11726645_a_at) / Fold change /veh CDHR5 (11726645_a_at) / RFU RCAN1 (11760418_a_at) / Fold change /veh RCAN1 (11760418_a_at) / RFU FAM167A (11723789_a_at) / Fold change /veh FAM167A (11723789_a_at) / RFU FAM26E (11764081_at) / Fold change /veh FAM26E (11764081_at) / RFU ISYNA1 (11749810_s_at) / Fold change /veh ISYNA1 (11749810_s_at) / RFU ACY1 (11761880_at) / Fold change /veh ACY1 (11761880_at) / RFU 11764098_at / Fold change /veh 11764098_at / RFU SAMD14 (11745864_x_at) / Fold change /veh SAMD14 (11745864_x_at) / RFU NPB (11741838_a_at) / Fold change /veh NPB (11741838_a_at) / RFU TMPRSS6 (11731388_a_at) / Fold change /veh TMPRSS6 (11731388_a_at) / RFU KRTAP10-2 (11738614_at) / Fold change /veh KRTAP10-2 (11738614_at) / RFU ARHGAP8 /// PRR5-ARHGAP8 (11727945_x_at) / Fold change /veh ARHGAP8 /// PRR5-ARHGAP8 (11727945_x_at) / RFU KRTAP5-7 /// NADSYN1 (11734609_at) / Fold change /veh KRTAP5-7 /// NADSYN1 (11734609_at) / RFU RASL12 (11751679_a_at) / Fold change /veh RASL12 (11751679_a_at) / RFU CDKN2B (11736163_a_at) / Fold change /veh CDKN2B (11736163_a_at) / RFU PRF1 (11729649_at) / Fold change /veh PRF1 (11729649_at) / RFU, ZNF638 /// ZNF638-IT1 / Fold change vs veh, ZNF638 /// ZNF638-IT1 / RFU, PANK3 / Fold change vs veh, PANK3 / RFU, SH3YL1 / Fold change vs veh, SH3YL1 / RFU, ZEB2 / Fold change vs veh, ZEB2 / RFU, NRIP1 / Fold change vs veh, NRIP1 / RFU, PTTG1IP / Fold change vs veh, PTTG1IP / RFU, CAPN2 / Fold change vs veh, CAPN2 / RFU, MED14 / Fold change vs veh, MED14 / RFU, SNORA58 / Fold change vs veh, SNORA58 / RFU, C1orf63 / Fold change vs veh, C1orf63 / RFU, LRRFIP1 / Fold change vs veh, LRRFIP1 / RFU, NDUFAF7 / Fold change vs veh, NDUFAF7 / RFU, SLC12A2 / Fold change vs veh, SLC12A2 / RFU, IBTK / Fold change vs veh, IBTK / RFU, ESF1 / Fold change vs veh, ESF1 / Fold change vs veh, TMEM50B / RFU, TAOK1 / Fold change vs veh, TAOK1 / RFU, ACBD3 / Fold change vs veh, ACBD3 / RFU, TMA16 / Fold change vs veh, TMA16 / RFU, RWDD3 / Fold change vs veh, RWDD3 / RFU, BCAT1 / Fold change vs veh, BCAT1 / RFU, EDEM3 / Fold change vs veh, EDEM3 / RFU, TMEM33 / Fold change vs veh, TMEM33 / RFU, WDR75 / Fold change vs veh, WDR75 / RFU, AHCTF1 / Fold change vs veh, AHCTF1 / RFU, TFRC / Fold change vs veh, TFRC / RFU, ZDHHC17 / Fold change vs veh, ZDHHC17 / RFU, NOM1 / Fold change vs veh, NOM1 / RFU, ARL8B / Fold change vs veh, ARL8B / RFU, ZBTB11 / Fold change vs veh, ZBTB11 / RFU, TAMM41 / Fold change vs veh, TAMM41 / RFU, KIAA1704 /// LOC100996395 / Fold change vs veh, KIAA1704 /// LOC100996395 / RFU, ING1 / Fold change vs veh, ING1 / RFU, TRMT61B / Fold change vs veh, TRMT61B / RFU, FUBP3 / Fold change vs veh, FUBP3 / RFU, TP53 / Fold change vs veh, TP53 / RFU, TNKS2 / Fold change vs veh, TNKS2 / RFU, ZFP14 / Fold change vs veh, ZFP14 / RFU, ACTR2 / Fold change vs veh, ACTR2 / RFU, PPP3R1 / Fold change vs veh, PPP3R1 / RFU, PIK3R1 / Fold change vs veh, PIK3R1 / RFU, HNRNPA1 / Fold change vs veh, HNRNPA1 / RFU, RNF170 / Fold change vs veh, RNF170 / RFU, ZNF28 / Fold change vs veh, ZNF28 / RFU, RNGTT / Fold change vs veh, RNGTT / RFU, OGT / Fold change vs veh, OGT / RFU, BRD1 / Fold change vs veh, BRD1 / RFU, MARS / Fold change vs veh, MARS / RFU, ZNF655 / Fold change vs veh, ZNF655 / RFU, FAHD1 / Fold change vs veh, FAHD1 / RFU, BDP1 / Fold change vs veh, BDP1 / RFU, LRRCC1 / Fold change vs veh, LRRCC1 / RFU, ARID1A / Fold change vs veh, ARID1A / RFU, ZNF146 / Fold change vs veh, ZNF146 / RFU, ZNF330 / Fold change vs veh, ZNF330 / RFU, GPN3 / Fold change vs veh, GPN3 / RFU, C9orf123 / Fold change vs veh, C9orf123 / RFU, N4BP2L2 / Fold change vs veh, N4BP2L2 / RFU, ARFIP1 / Fold change vs veh, ARFIP1 / RFU, FAM179B / Fold change vs veh, FAM179B / RFU, BCL10 / Fold change vs veh, BCL10 / RFU, UHRF1BP1L / Fold change vs veh, UHRF1BP1L / RFU, BET1 / Fold change vs veh, BET1 / RFU, CNOT2 / Fold change vs veh, CNOT2 / RFU, ZNF268 / Fold change vs veh, ZNF268 / Fold change vs veh, ZNF507 / RFU, DGCR2 / Fold change vs veh, DGCR2 / RFU, WDSUB1 / Fold change vs veh, WDSUB1 / Fold change vs veh, HSP90B1 /// MIR3652 / RFU, ADSS / Fold change vs veh, ADSS / RFU, GK / Fold change vs veh, GK / RFU, ZNF148 / Fold change vs veh, ZNF148 / RFU, TAF9 / Fold change vs veh, TAF9 / RFU, SLC1A5 / Fold change vs veh, SLC1A5 / RFU, SLMO2 / Fold change vs veh, SLMO2 / RFU, ABCC4 / Fold change vs veh, ABCC4 / RFU, LOC101060439 /// RAP1B / Fold change vs veh, LOC101060439 /// RAP1B / RFU, RFX7 / Fold change vs veh, RFX7 / RFU, GTPBP10 / Fold change vs veh, GTPBP10 / RFU, CNEP1R1 / Fold change vs veh, CNEP1R1 / RFU, BIVM-ERCC5 /// ERCC5 / Fold change vs veh, BIVM-ERCC5 /// ERCC5 / RFU, ILF3 / Fold change vs veh, ILF3 / RFU 11762660_at / Fold change /veh 11762660_at / RFU VCAN (11757783_s_at) / Fold change /veh VCAN (11757783_s_at) / RFU DDX43 (11728927_at) / Fold change /veh DDX43 (11728927_at) / RFU KRT8 (11758188_x_at) / Fold change /veh KRT8 (11758188_x_at) / RFU NKD1 (11759106_at) / Fold change /veh NKD1 (11759106_at) / RFU SRD5A1 (11742802_a_at) / Fold change /veh SRD5A1 (11742802_a_at) / RFU TPSAB1 /// TPSB2 (11721975_s_at) / Fold change /veh TPSAB1 /// TPSB2 (11721975_s_at) / RFU GSTM3 (11746129_a_at) / Fold change /veh GSTM3 (11746129_a_at) / RFU IL23R (11737362_x_at) / Fold change /veh IL23R (11737362_x_at) / RFU TMEM51 (11727254_a_at) / Fold change /veh TMEM51 (11727254_a_at) / RFU PIWIL2 (11732686_x_at) / Fold change /veh PIWIL2 (11732686_x_at) / RFU ORM1 (11744905_x_at) / Fold change /veh ORM1 (11744905_x_at) / RFU CCDC152 (11743942_at) / Fold change /veh CCDC152 (11743942_at) / RFU ECM1 (11717891_a_at) / Fold change /veh ECM1 (11717891_a_at) / RFU IL23R (11748794_a_at) / Fold change /veh IL23R (11748794_a_at) / RFU TNFAIP8L3 (11732012_x_at) / Fold change /veh TNFAIP8L3 (11732012_x_at) / RFU MBOAT4 (11741988_at) / Fold change /veh MBOAT4 (11741988_at) / RFU 11764193_at / Fold change /veh 11764193_at / RFU TMEM53 (11763286_at) / Fold change /veh TMEM53 (11763286_at) / RFU MAGEB2 (11727129_at) / Fold change /veh MAGEB2 (11727129_at) / RFU TMEM200A (11744735_a_at) / Fold change /veh TMEM200A (11744735_a_at) / RFU CCDC152 (11751479_a_at) / Fold change /veh CCDC152 (11751479_a_at) / RFU FAM211A (11726209_a_at) / Fold change /veh FAM211A (11726209_a_at) / RFU RGS16 (11746705_a_at) / Fold change /veh RGS16 (11746705_a_at) / RFU VCAN (11755009_s_at) / Fold change /veh VCAN (11755009_s_at) / RFU RHOB (11743442_s_at) / Fold change /veh RHOB (11743442_s_at) / RFU RGS16 (11720943_a_at) / Fold change /veh RGS16 (11720943_a_at) / RFU RGS16 (11720944_at) / Fold change /veh RGS16 (11720944_at) / RFU, VPS4B / Fold change vs veh, VPS4B / RFU, CREB1 / Fold change vs veh, CREB1 / RFU, DNAJC13 / Fold change vs veh, DNAJC13 / RFU, GNAQ / Fold change vs veh, GNAQ / RFU, CDK5R1 / Fold change vs veh, CDK5R1 / RFU, ZRANB3 / Fold change vs veh, ZRANB3 / RFU, CUL4A / Fold change vs veh, CUL4A / RFU, CCNY / Fold change vs veh, CCNY / RFU, UFL1 / Fold change vs veh, UFL1 / RFU, COG3 / Fold change vs veh, COG3 / RFU, DIAPH2 / Fold change vs veh, DIAPH2 / RFU, SKA2 / Fold change vs veh, SKA2 / RFU, AFF3 / Fold change vs veh, AFF3 / RFU, LMF1 / Fold change vs veh, LMF1 / RFU, IPO11 / Fold change vs veh, IPO11 / RFU, DFFB / Fold change vs veh, DFFB / RFU, FOXP1 / Fold change vs veh, FOXP1 / RFU, CARD8 / Fold change vs veh, CARD8 / RFU, STRN3 / Fold change vs veh, STRN3 / RFU, ADK / Fold change vs veh, ADK / RFU, RASSF2 / Fold change vs veh, RASSF2 / RFU, WIPF1 / Fold change vs veh, WIPF1 / RFU, LARP1B / Fold change vs veh, LARP1B / RFU, RASA1 / Fold change vs veh, RASA1 / RFU, RB1 / Fold change vs veh, RB1 / RFU, PPFIA1 / Fold change vs veh, PPFIA1 / RFU, MAT2A / Fold change vs veh, MAT2A / RFU, CCT5 / Fold change vs veh, CCT5 / RFU, WDR92 / Fold change vs veh, WDR92 / RFU, CUX1 / Fold change vs veh, CUX1 / RFU, TTC7A / Fold change vs veh, TTC7A / RFU, TMEM135 / Fold change vs veh, TMEM135 / RFU, DEPTOR / Fold change vs veh, DEPTOR / RFU, CPM / Fold change vs veh, CPM / RFU, DNAJB6 / Fold change vs veh, DNAJB6 / RFU, CACNA2D3 / Fold change vs veh, CACNA2D3 / RFU, DTX4 / Fold change vs veh, DTX4 / RFU, TFCP2 / Fold change vs veh, TFCP2 / RFU, GMCL1 /// GMCL1P1 / Fold change vs veh, GMCL1 /// GMCL1P1 / RFU, AEBP2 / Fold change vs veh, AEBP2 / RFU, SNHG1 /// SNORD22 /// SNORD25 /// SNORD26 /// SNORD27 /// SNORD28 /// SNORD29 /// SNORD31 / Fold change vs veh, SNHG1 /// SNORD22 /// SNORD25 /// SNORD26 /// SNORD27 /// SNORD28 /// SNORD29 /// SNORD31 / Fold change (Aza/veh), C12orf56 (ProbeSet 11735607_a_at) / Fold change (ACY-1035/veh), C12orf56 (ProbeSet 11735607_a_at) / Fold change (Aza/veh), FGFR1OP (ProbeSet 11751329_s_at) / Fold change (ACY-1035/veh), FGFR1OP (ProbeSet 11751329_s_at) / Fold change (Aza/veh), VPS36 (ProbeSet 11739960_a_at) / Fold change (ACY-1035/veh), VPS36 (ProbeSet 11739960_a_at) / RFU SYPL1 (11715823_x_at) / Fold change /veh SYPL1 (11715823_x_at) / RFU IGFBP7 (11715501_s_at) / Fold change /veh IGFBP7 (11715501_s_at) / RFU REEP3 (11722064_at) / Fold change /veh REEP3 (11722064_at) / RFU IGLL1 (11728026_x_at) / Fold change /veh IGLL1 (11728026_x_at): dose or concentration left out as unconfirmed
Conditions: MV-4-11 cells, 48 hours

Question: For `Nc1ccc(-c2cccs2)cc1NC(=O)c1ccc2c(c1)cc(C1CC1)n2CCN1CCOCC1` [ACY-1035], which “RFU LRRC4B (11730491_at)” value is on record?
Answer: 28.30 RFU
